Source: US20010056582A1, “PAIRED MUTATIONS” (priority 1997, published 2001)
Counter-ions that a name gives are not always drawn. Like-named read-outs stand apart in the source and are kept apart here.

Assays:
[1] = test system: mice; settings: cited from earlier work; for mutation frequency compared with ENU: other chemical mutagens versus ENU (approximately 1 per 1000 mice)
[2] = test system: post-cell stages of spermatogenesis (male germ cells); settings: cited from earlier work; for Lethal/tested mutations: number of lethal mutations among those tested, for chlorambucil includes mutations with evidence for deletion
[3] = test system: male mice; assay: Sterility of male mice after ENU treatment; format: in vivo
Experimental: Mutations in the DNA of the premeiotic spermatogonia of male mice can be induced with the DNA alkylating agent ethylnitrosourea (ENU). Typically, 3 separate doses of 100 mg/kg body weight ENU are injected interperitoneally, with each injection separated by a one week interval. The animals undergo a period of sterility (usually 8-14 weeks), after which they can be mated to nonmutagenized females to produce offspring (the F1 generation) which carry heterozygous mutations in their genome (FIG. 1).
Each animal carries the same set of heterozygous mutations throughout both somatic and germ tissue. To generate large numbers of offspring for a paired sample set, 300 males are treated with ENU. Approximately 100 of these mice will be permanently sterile; the remaining 200 are permanently mated with 2 females each. […] In this way a set of paired samples comprised of over 30,000 animals can be produced within a year, including the time required to establish the ENU treated breeding males. The process can be scaled up by ENU treatment and breeding of additional male mice.

[4] = test system: zebrafish; settings: ENU mutagenesis; cited from earlier work
[5] = experimental minus historical control 43/801,406, for period of maximum response, at the listed exposure
[6] = rate relative to exposure in mol per kg body weight

| SMILES | mutation frequency compared with ENU [1] | Induced mutation rate per locus [2, 5] | Induced mutation rate per locus per mol [2, 6] [per mol] | Lethal/tested mutations [2] | other results |
| --- | --- | --- | --- | --- | --- |
| CNNCc1ccc(C(=O)NC(C)C)cc1.Cl [Pre, phocarbazine hydrochloride] | same type of mutation frequency | 21.6 × 10^−5 | 0.1 | – | – |
| CN(N=O)C(N)=O [MNU, N-methyl N-nitrosourea] | same type of mutation frequency | 90.2 × 10^−5 | 1.2 | 0/17 | – |
| C=CC(N)=O [AA, acrylamide monomer] | – | – | – | – | Induced mutation rate per locus ([2]; mouse, in vivo): 18.2 × 10^−5; Induced mutation rate per locus per mol ([2]; mouse, in vivo): 0.1 per mol |
| O=P1(N(CCCl)CCCl)NCCCO1 (stereo not drawn) [Cp, cyclophosphamide] | – | 24.3 × 10^−5 | 0.5 | 3/5 | – |
| CCOS(=O)(=O)OCC [Et2SO4, diethyl sulfate] | – | – | – | 4/4 | Induced mutation rate per locus ([2]; mouse, in vivo): 11.2 × 10^−5; Induced mutation rate per locus per mol ([2]; mouse, in vivo): 0.1 per mol |
| COS(C)(=O)=O [MeMs, methyl methanesulforate] | same type of mutation frequency | 24.0 × 10^−5 | 0.7 | 10/14 | – |
| O=C(O)CCCc1ccc(N(CCCl)CCCl)cc1 [Chl, chlorambucil] | – | 127.3 × 10^−5 | 38.7 | 1/4 | – |
| CCOS(C)(=O)=O [EtMs, ethyl methanesulforate] | – | 20.9 × 10^−5 | 0.1 | 0/1 | – |
| CCN(N=O)C(N)=O [ENU, N-ethyl-N-nitrosourea] | – | 10.6 × 10^−5 | 0.2 | 0/5 | period of sterility ([3]; male mice, 3 doses of 100 mg/kg ENU interperitoneally at one week intervals): 8-14 weeks; mice permanently sterile ([3]; of 300 males treated with ENU): Approximately 100 mice; frequency of mutations, determined for numerous genes ([1]; for any given gene screened, phenotype-based): 0.5-1.5 mutant mice per 1000 mice; frequency of a mutation in any given gene ([1]; offspring of ENU mutagenized male mice, based on phenotypic assays): approximately 1 per 1000 mice; locus-specific mutation frequency [4]: 1/1000 |
